# Measured values reported in US8389794B2, “Transgenic pig as a model of Alzheimer's disease” (Aarhus Universitet, priority 2007, dated 2013).
# Where a SMILES comes first, the peptide text is derived from it. [ ]: non-standard residue; d: D form. Nle = CCCC[C@H](N)C(=O)O
# Tests used:
# [1] = system: APP695; assay: Western blot (antibody 6E10) of fibroblasts grown with protease inhibitors; type: cell-based, Göttingen minipig
# Experimental: A Western blot using a commercial anti-APP antibody (6E10), […], was performed according to the manufacturer's recommendations. The Western blot was performed on extracts from fibroblast cells of a transgenic pig (lanes 1 and 2) and on extracts from fibroblast cells of a wt pig (lanes 3 and 4), see FIG. 10. In lane 1 the fibroblasts have been treated with the protease inhibitor ALLN, whereas the fibroblasts of lane 2 have not received treatment. […] In contrast, the lower molecular weight products are not present in similar amounts as in lane 2. Lanes 3 and 4 contain extracts of fibroblasts from wt pigs and no effect of ALLN treatment is evident in comparison to the extracts of transgenic pigs.
# a) Non-transgenic donor fibroblasts (74114 cells) and fibroblasts from transgenic minipiglet No. 47 were grown to 80% confluence in a 75 cm2 flask. The cells from each flask were resuspended in 24 ml medium and transferred to a 6-well plate (TPP, Schwitzerland) with 2.5 ml of the cell suspension in each well. Medium was changed the following day with 2 ml fresh medium containing the chemical at the indicated concentration were added to the wells of both plates: well No. 1, 5 μM Lactacystin; well No. 2, 20 μM Leupeptin; well No. 3, 20 μl DMSO; well No. 4, 20 μM ALLN; well No. 5, 2.5 mM NH4Cl. After 6 hrs incubation the cells from each well were harvested and transferred to an 1.5 ml Eppendorf tube. 30 μl ddH20, 2 μl reducing agent and 8 μl loading buffer (Fermentas) were added, the tubes were placed in boiling water for 5 min. and spun at full speed for 1 min. in an Eppendorf centrifuge. 15 μl of each sample were loaded on a 4-15% polyacrylamid gel (BioRad), run at 45 mAmp for 90 min. Transfer to PVDF membrane (GE Healthcare) was done at 75 volt for 30 min., and the membrane was stained with anti-human APP monoclonal antibody 6E10 (SIGNET) at dilution 1:1000, and as secondary antibody polyclonal goat anti-mouse immunoglobulines/HRP (Dako Cytomation) at dilution 1:2000. b) Extraction of protein from brain tissue was done with 100-200 mg flash frozen cortical tissue homogenized in a tissue-grinder with 3 ml lysis buffer (Tris-HCl 50 mM, EDTA 10 mM, SDS 1%, Triton X-100 0.5%, ⅓ Protease Inhibitor Cocktail Tablet (Roche), pH 8.0). The solution was transferred to an Eppendorf tube (1 ml), centrifuged at 12,000 rpm for 2 min at 4° C. and supernatant transferred to a new tube. After vortexing the tube was frozen in dry ice for 3 min, thawed at 37° C. for 3 min, and this freeze/thaw step was repeated 3 times. Finally, the solution was centrifuged at 14,000 rpm (4° C.) for 10 min, the pellet discarded and the protein concentration of the supernatant determined. 8 μg protein extract was loaded in each lane of the polyacrylamid gel. Western blotting was done as described above. […]
# [2] = molecular target: T1, β-secretase (Mus musculus, UniProt P56818); conditions: oral administration, APP transgenic mice; cited from earlier work
# T1 construct: host or cells: brain of APP transgenic mice (in vivo, oral dosing)
# [3] = system: PDAPP transgenic mouse; conditions: subcutaneous immunization, 100 ug in complete Freund adjuvant; cited from earlier work
# T1 sequence (P56818 46-501): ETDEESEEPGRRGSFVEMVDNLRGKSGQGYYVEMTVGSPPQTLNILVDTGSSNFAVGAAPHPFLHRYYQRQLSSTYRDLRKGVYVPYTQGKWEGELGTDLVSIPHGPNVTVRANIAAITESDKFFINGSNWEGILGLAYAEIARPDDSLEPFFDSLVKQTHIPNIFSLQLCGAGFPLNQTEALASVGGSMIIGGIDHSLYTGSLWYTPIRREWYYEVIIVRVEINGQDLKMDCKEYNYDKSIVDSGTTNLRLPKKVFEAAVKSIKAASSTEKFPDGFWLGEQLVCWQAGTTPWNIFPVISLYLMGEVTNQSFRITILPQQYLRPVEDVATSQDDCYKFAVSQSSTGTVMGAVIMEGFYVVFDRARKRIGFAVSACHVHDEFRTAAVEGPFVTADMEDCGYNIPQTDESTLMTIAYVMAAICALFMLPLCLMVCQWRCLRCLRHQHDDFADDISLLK
compound,measurement,setting,value
Cl.N [ammonium chloride],"difference in intensity of the APP695 bands, transgenic vs non-transgenic fibroblasts","[1]; ammonium chloride in medium (2.5 mM NH4Cl per method), data not shown",no such effect
CCNc1cc(C(=O)N[C@@H](Cc2ccccc2)[C@H](O)CNCc2cccc(C(F)(F)F)c2)c(F)c(N2CCCCS2(=O)=O)c1 [GSK188909],brain Abeta,[2],significant lowering
CC(=O)N[C@@H](CC(C)C)C(=O)N[C@@H](CC(C)C)C(=O)N[C@H](C=O)CCCNC(=N)N [leupeptin],"difference in intensity of the APP695 bands, transgenic vs non-transgenic fibroblasts","[1]; leupeptin in medium (20 μM per method), data not shown",no such effect
Abeta 1-42 antigen: Abeta 1-42 antigen in complete Freund adjuvant for active immunization,accumulation of plaques in the brain,[3],reduces the accumulation of plaques
CCCC[C@@H](C=O)NC(=O)[C@H](CC(C)C)NC(=O)[C@H](CC(C)C)NC(C)=O [ALLN] (Ac-Leu-Leu-[Nle]-aldehyde),"difference in intensity of the APP695 bands, transgenic vs non-transgenic fibroblasts","[1]; 20 μM ALLN in medium, fibroblasts of transgenic piglet No. 47 vs donor cells 74114",becomes more pronounced
same,bands of lower molecular weight than mutated APP,[1]; ALLN treated fibroblasts of transgenic pig vs untreated,increased in intensity
